From ChEMBL document CHEMBL1151757, “Synthesis, radiosynthesis, and biological evaluation of fluorine-18-labeled 2beta-carbo(fluoroalkoxy)-3beta-(3'-((Z)-2-haloethenyl)phenyl)nortropanes: candidate radioligands for in vivo imaging of the serotonin transporter with positron emission tomography” (J Med Chem, 2008)

Assays:
Medulla [1] = assay: Drug uptake in anesthetized cynomolgus monkey brain medulla after 125 mins postinjection; format: ADME, organism-based, Macaca fascicularis; settings: in vivo
Thalamus [2] = assay: Drug uptake in anesthetized cynomolgus monkey brain thalamus after 235 mins postinjection; format: ADME, organism-based, Macaca fascicularis; parameters: unit not given here; settings: in vivo
[3] = Drug uptake in anesthetized cynomolgus monkey brain occipital lobe after 225 mins postinjection; format: ADME, organism-based, Macaca fascicularis; settings: in vivo, 3.75 h
Thalamus [4] = assay: Drug uptake in anesthetized cynomolgus monkey brain thalamus after 125 mins postinjection; format: ADME, organism-based, Macaca fascicularis; parameters: unit not given here; settings: in vivo
Pons [5] = assay: Drug uptake in anesthetized cynomolgus monkey brain pons after 135 mins postinjection; format: ADME, organism-based, Macaca fascicularis; settings: in vivo, 2.25 h
Caudate [6] = assay: Drug uptake in anesthetized cynomolgus monkey brain caudate after 27.5 mins postinjection; format: ADME, organism-based, Macaca fascicularis, Caudate nucleus; settings: in vivo
Midbrain [7] = assay: Drug uptake in anesthetized cynomolgus monkey brain midbrain after 95 mins postinjection; format: ADME, organism-based, Macaca fascicularis; parameters: unit not given here; settings: in vivo
[8] = Ratio of drug uptake in thalamus to cerebellum in anesthetized cynomolgus monkey after 9.5 mins postinjection; format: ADME, organism-based, Macaca fascicularis; settings: in vivo
Putamen [9] = assay: Drug uptake in anesthetized cynomolgus monkey brain putamen after 55 mins postinjection; format: ADME, organism-based, Macaca fascicularis; parameters: unit not given here; settings: in vivo
Midbrain [10] = assay: Drug uptake in anesthetized cynomolgus monkey brain midbrain after 105 mins postinjection; format: ADME, organism-based, Macaca fascicularis; parameters: unit not given here; settings: in vivo, 1.75 h
Pons [11] = assay: Drug uptake in anesthetized cynomolgus monkey brain pons after 225 mins postinjection; format: ADME, organism-based, Macaca fascicularis; settings: in vivo, 3.75 h
Medulla [12] = assay: Drug uptake in anesthetized cynomolgus monkey brain medulla after 55 mins postinjection; format: ADME, organism-based, Macaca fascicularis; settings: in vivo
Putamen [13] = assay: Drug uptake in anesthetized cynomolgus monkey brain putamen after 75 mins postinjection; format: ADME, organism-based, Macaca fascicularis; parameters: unit not given here; settings: in vivo, 1.25 h
Pons [14] = assay: Drug uptake in anesthetized cynomolgus monkey brain pons after 55 mins postinjection; format: ADME, organism-based, Macaca fascicularis; settings: in vivo
Thalamus [15] = assay: Drug uptake in anesthetized cynomolgus monkey brain thalamus after 2.5 mins postinjection; format: ADME, organism-based, Macaca fascicularis; parameters: unit not given here; settings: in vivo
Medulla [16] = assay: Drug uptake in anesthetized cynomolgus monkey brain medulla after 65 mins postinjection; format: ADME, organism-based, Macaca fascicularis; settings: in vivo
Thalamus [17] = assay: Drug uptake in anesthetized cynomolgus monkey brain thalamus after 1.5 mins postinjection; format: ADME, organism-based, Macaca fascicularis; settings: in vivo, 0.025 h
Medulla [18] = assay: Drug uptake in anesthetized cynomolgus monkey brain medulla after 85 mins postinjection; format: ADME, organism-based, Macaca fascicularis; settings: in vivo
Midbrain [19] = assay: Drug uptake in anesthetized cynomolgus monkey brain midbrain after 115 mins postinjection; format: ADME, organism-based, Macaca fascicularis; parameters: unit not given here; settings: in vivo
Putamen [20] = assay: Drug uptake in anesthetized cynomolgus monkey brain putamen after 95 mins postinjection; format: ADME, organism-based, Macaca fascicularis; parameters: unit not given here; settings: in vivo
[21] = Drug uptake in anesthetized cynomolgus monkey brain frontal lobe after 65 mins postinjection; format: ADME, organism-based, Macaca fascicularis; settings: in vivo
Caudate [22] = assay: Drug uptake in anesthetized cynomolgus monkey brain caudate after 75 mins postinjection; format: ADME, organism-based, Macaca fascicularis, Caudate nucleus; settings: in vivo, 1.25 h
Caudate [23] = assay: Drug uptake in anesthetized cynomolgus monkey brain caudate after 9.5 mins postinjection; format: ADME, organism-based, Macaca fascicularis, Caudate nucleus; settings: in vivo
[24] = Ratio of drug uptake in thalamus to cerebellum in anesthetized cynomolgus monkey after 95 mins postinjection; format: ADME, organism-based, Macaca fascicularis; settings: in vivo
Putamen [25] = assay: Drug uptake in anesthetized cynomolgus monkey brain putamen after 1.5 mins postinjection; format: ADME, organism-based, Macaca fascicularis; settings: in vivo, 0.025 h
Caudate [26] = assay: Drug uptake in anesthetized cynomolgus monkey brain caudate after 2.5 mins postinjection; format: ADME, organism-based, Macaca fascicularis, Caudate nucleus; settings: in vivo
[27] = Ratio of drug uptake in pons to cerebellum in anesthetized cynomolgus monkey after 225 mins postinjection; format: ADME, organism-based, Macaca fascicularis; settings: in vivo, 3.75 h
[28] = Ratio of drug uptake in medulla to cerebellum in anesthetized cynomolgus monkey after 9.5 mins postinjection; format: ADME, organism-based, Macaca fascicularis; settings: in vivo
Pons [29] = assay: Drug uptake in anesthetized cynomolgus monkey brain pons after 22.5 mins postinjection; format: ADME, organism-based, Macaca fascicularis; settings: in vivo, 0.375 h
[30] = Drug uptake in anesthetized cynomolgus monkey brain frontal lobe after 165 mins postinjection; format: ADME, organism-based, Macaca fascicularis; settings: in vivo, 2.75 h
Pons [31] = assay: Drug uptake in anesthetized cynomolgus monkey brain pons after 4.5 mins postinjection; format: ADME, organism-based, Macaca fascicularis; settings: in vivo, 0.075 h
Medulla [32] = assay: Drug uptake in anesthetized cynomolgus monkey brain medulla after 175 mins postinjection; format: ADME, organism-based, Macaca fascicularis; settings: in vivo
Caudate [33] = assay: Drug uptake in anesthetized cynomolgus monkey brain caudate after 235 mins postinjection; format: ADME, organism-based, Macaca fascicularis, Caudate nucleus; settings: in vivo
Medulla [34] = assay: Drug uptake in anesthetized cynomolgus monkey brain medulla after 35 mins postinjection; format: ADME, organism-based, Macaca fascicularis; settings: in vivo
Pons [35] = assay: Drug uptake in anesthetized cynomolgus monkey brain pons after 15.5 mins postinjection; format: ADME, organism-based, Macaca fascicularis; settings: in vivo
[36] = Ratio of drug uptake in pons to cerebellum in anesthetized cynomolgus monkey after 145 mins postinjection; format: ADME, organism-based, Macaca fascicularis; settings: in vivo
Putamen [37] = assay: Drug uptake in anesthetized cynomolgus monkey brain putamen after 27.5 mins postinjection; format: ADME, organism-based, Macaca fascicularis; parameters: unit not given here; settings: in vivo
Caudate [38] = assay: Drug uptake in anesthetized cynomolgus monkey brain caudate after 95 mins postinjection; format: ADME, organism-based, Macaca fascicularis, Caudate nucleus; settings: in vivo
Thalamus [39] = assay: Drug uptake in anesthetized cynomolgus monkey brain thalamus after 6.5 mins postinjection; format: ADME, organism-based, Macaca fascicularis; parameters: unit not given here; settings: in vivo
Thalamus [40] = assay: Drug uptake in anesthetized cynomolgus monkey brain thalamus after 115 mins postinjection; format: ADME, organism-based, Macaca fascicularis; parameters: unit not given here; settings: in vivo
Medulla [41] = assay: Drug uptake in anesthetized cynomolgus monkey brain medulla after 45 mins postinjection; format: ADME, organism-based, Macaca fascicularis; settings: in vivo, 0.75 h
Medulla [42] = assay: Drug uptake in anesthetized cynomolgus monkey brain medulla after 9.5 mins postinjection; format: ADME, organism-based, Macaca fascicularis; settings: in vivo
[43] = Ratio of drug uptake in frontal lobe to cerebellum in anesthetized cynomolgus monkey after 3.5 mins postinjection; format: ADME, organism-based, Macaca fascicularis; settings: in vivo
[44] = Ratio of drug uptake in frontal lobe to cerebellum in anesthetized cynomolgus monkey after 95 mins postinjection; format: ADME, organism-based, Macaca fascicularis; settings: in vivo
Medulla [45] = assay: Drug uptake in anesthetized cynomolgus monkey brain medulla after 95 mins postinjection; format: ADME, organism-based, Macaca fascicularis; settings: in vivo

O=C(OCC[18F])C1C2CCC(CC1c1cccc(/C=C\I)c1)N2 (stereo not given)
Drug uptake (Medulla [1]): 3.27
Drug uptake (Thalamus [2]): 2.2
Drug uptake [3]: 1.22
Drug uptake (Thalamus [4]): 3.41
Drug uptake (Pons [5]): 2.65
Drug uptake (Caudate [6]): 3.39
Drug uptake (Midbrain [7]): 4.55
Ratio [8]: 0.9
Drug uptake (Putamen [9]): 4.37
Drug uptake (Midbrain [10]): 4.34
Drug uptake (Pons [11]): 2.03
Drug uptake (Medulla [12]): 3.96
Drug uptake (Putamen [13]): 4.28
Drug uptake (Pons [14]): 3.27
Drug uptake (Thalamus [15]): 0.43
Drug uptake (Medulla [16]): 3.97
Drug uptake (Thalamus [17]): 0.09
Drug uptake (Medulla [18]): 3.75
Drug uptake (Midbrain [19]): 4.18
Drug uptake (Putamen [20]): 4.02
Drug uptake [21]: 2.78
Drug uptake (Caudate [22]): 3.62
Drug uptake (Caudate [23]): 2.5
Ratio [24]: 1.5
Drug uptake (Putamen [25]): 0.1
Drug uptake (Caudate [26]): 0.37
Ratio [27]: 1.6
Ratio [28]: 0.9
Drug uptake (Pons [29]): 3.05
Drug uptake [30]: 1.81
Drug uptake (Pons [31]): 1.2
Drug uptake (Medulla [32]): 2.78
Drug uptake (Caudate [33]): 1.99
Drug uptake (Medulla [34]): 4.05
Drug uptake (Pons [35]): 2.82
Ratio [36]: 1.4
Drug uptake (Putamen [37]): 4.16
Drug uptake (Caudate [38]): 3.39
Drug uptake (Thalamus [39]): 2.49
Drug uptake (Thalamus [40]): 3.58
Drug uptake (Medulla [41]): 4
Drug uptake (Medulla [42]): 3.15
Ratio [43]: 0.6
Ratio [44]: 1
Drug uptake (Medulla [45]): 3.56
